Laboratory results taken from BindingDB's records for PubMed 2894455 (University of Missouri, 1988).
“And” between values parts separate entries of the source, which are not always exact repeats. Equal entries are not always repeated.

Biological target: T1, Alpha-2B adrenergic receptor (Didelphis virginiana, UniProt O77715)
T1 sequence (O77715 whole entry): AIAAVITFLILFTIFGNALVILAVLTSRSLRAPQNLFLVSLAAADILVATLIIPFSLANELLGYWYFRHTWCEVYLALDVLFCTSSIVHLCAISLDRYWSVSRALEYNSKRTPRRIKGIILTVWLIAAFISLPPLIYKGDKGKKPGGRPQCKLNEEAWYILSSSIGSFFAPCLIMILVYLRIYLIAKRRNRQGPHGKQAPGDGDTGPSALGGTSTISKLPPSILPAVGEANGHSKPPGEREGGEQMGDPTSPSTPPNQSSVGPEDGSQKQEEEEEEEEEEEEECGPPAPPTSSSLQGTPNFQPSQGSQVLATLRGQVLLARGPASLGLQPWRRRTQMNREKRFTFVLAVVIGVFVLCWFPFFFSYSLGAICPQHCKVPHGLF

Ki	Compound
14 nM	Clc1cccc(Cl)c1N=C1NCCN1 [2-(2,6-dichloroanilino)-2-imidazoline]
143 nM	O=C(c1ccc(F)cc1)C1CCN(CCn2c(=O)[nH]c3ccccc3c2=O)CC1 [3-(2-{4-[(4-fluorophenyl)carbonyl]piperidin-1-yl}ethyl)-1,2,3,4-tetrahydroquinazoline-2,4-dione]
31 nM	CNCC(O)c1ccc(O)c(O)c1 (centres undefined) [EPINEPHRINE]
0.27 nM	COc1cccc(OC)c1OCCNCC1Oc2ccccc2OC1c1ccccc1 (centres undefined) [NSC_185453]
122 nM	NCC(O)c1ccc(O)c(O)c1 (stereo not drawn) [Noradrenaline,(+)]
5.6 nM	Cc1ccc(N(CC2=NCCN2)c2cccc(O)c2)cc1 [SMR000059054]
10 nM	Cc1cc(C(C)(C)C)c(O)c(C)c1CC1=NCCN1 [SMR000059324]
7.4 nM and 7.6 nM	COc1cc2nc(N3CCN(C(=O)c4ccco4)CC3)nc(N)c2cc1OC [[3H]-Minipress]

Compound	Ki
Brc1c(NC2=NCCN2)ccc2nccnc12 [UK 14,304]	22 nM
